Assay results: the NIST ThermoML archive (doi:10.1021/acs.jced.9b00147)
Numbers after ± are expanded uncertainties.

Test: xn = mol fraction of the nth substance listed
Details: 101.3 kPa, Liquid; for speed of sound: Single path-length method; for mass density: Vibrating tube method

CC(=O)[O-].OCC[NH2+]CCO [2,2'-azanediylbis(ethanol) acetate] + CC(C)O
Details | mass density, 293.15 K [kg/m3] | mass density, 303.15 K [kg/m3] | mass density, 313.15 K [kg/m3] | mass density, 323.15 K [kg/m3] | speed of sound, 293.15 K [m/s] | speed of sound, 303.15 K [m/s] | speed of sound, 313.15 K [m/s] | speed of sound, 323.15 K [m/s]
x1 = 0.102 | 857.7 ± 7.1 | 849.5 ± 7.2 | 841.1 ± 7.2 | 832.5 ± 7.2 | 1233.4 ± 20 | 1200.3 ± 20 | 1167.1 ± 20 | 1133.6 ± 20
x1 = 0.2 | 915.4 ± 6.8 | 907.6 ± 6.8 | 899.4 ± 6.9 | 891.4 ± 6.9 | 1301.5 ± 20 | 1269.6 ± 20 | 1237.8 ± 20 | 1205.8 ± 20
x1 = 0.299 | 965.3 ± 6.6 | 957.7 ± 6.6 | 949.8 ± 6.6 | 942.3 ± 6.7 | 1372.4 ± 20 | 1341.2 ± 20 | 1310.1 ± 20 | 1279.1 ± 20
x1 = 0.398 | 1009 ± 7 | 1001 ± 7 | 993.2 ± 6.5 | 986.6 ± 6.5 | 1448.2 ± 21 | 1416.7 ± 21 | 1386.3 ± 21 | 1355.2 ± 21
x1 = 0.502 | 1048 ± 6 | 1041 ± 6 | 1034 ± 6 | 1025 ± 6 | 1530.5 ± 21 | 1498.3 ± 20 | 1468.4 ± 20 | 1438.7 ± 20
x1 = 0.59 | 1076 ± 6 | 1069 ± 6 | 1061 ± 6 | 1056 ± 6 | 1596.5 ± 20 | 1561.8 ± 20 | 1530.4 ± 20 | 1498.8 ± 20
x1 = 0.696 | 1109 ± 6 | 1102 ± 6 | 1095 ± 6 | 1089 ± 6 | 1675.3 ± 21 | 1638.8 ± 21 | 1607 ± 20 | 1576.7 ± 20
x1 = 0.799 | 1137 ± 6 | 1131 ± 6 | 1124 ± 6 | 1118 ± 6 | 1756.3 ± 21 | 1717.6 ± 20 | 1684.7 ± 20 | 1653.8 ± 20
x1 = 0.9 | 1162 ± 6 | 1155 ± 6 | 1149 ± 6 | 1142 ± 6 | 1828.4 ± 20 | 1782.1 ± 20 | 1746.8 ± 20 | 1714.4 ± 20
x1 = 1 | 1180 ± 6 | 1173 ± 6 | 1167 ± 6 | 1160 ± 6 | 1884.7 ± 20 | 1828.2 ± 20 | 1788.6 ± 20 | 1756 ± 20

CC(=O)[O-].OCC[NH2+]CCO [2,2'-azanediylbis(ethanol) acetate] + CCCO
Details | mass density, 293.15 K [kg/m3] | mass density, 303.15 K [kg/m3] | mass density, 313.15 K [kg/m3] | mass density, 323.15 K [kg/m3] | speed of sound, 293.15 K [m/s] | speed of sound, 303.15 K [m/s] | speed of sound, 313.15 K [m/s] | speed of sound, 323.15 K [m/s]
x1 = 0.096 | 869.5 ± 7.1 | 861.6 ± 7.1 | 853.5 ± 7.1 | 845.4 ± 7.1 | 1286.3 ± 20 | 1253.5 ± 20 | 1221.2 ± 20 | 1188.8 ± 20
x1 = 0.199 | 929 ± 6.8 | 921.2 ± 6.8 | 913.4 ± 6.8 | 905.7 ± 6.8 | 1352.7 ± 20 | 1321 ± 20 | 1289.8 ± 20 | 1258.8 ± 20
x1 = 0.295 | 975 ± 6.6 | 967.5 ± 6.6 | 959.9 ± 6.6 | 952 ± 6.6 | 1415.2 ± 20 | 1384.2 ± 20 | 1353.6 ± 20 | 1323.1 ± 20
x1 = 0.4 | 1018 ± 6 | 1012 ± 6 | 1004 ± 6 | 996.6 ± 6.5 | 1488.2 ± 20 | 1457.2 ± 20 | 1427.3 ± 20 | 1397.4 ± 20
x1 = 0.501 | 1054 ± 6 | 1047 ± 6 | 1040 ± 6 | 1033 ± 6 | 1556.5 ± 20 | 1524.7 ± 20 | 1494.6 ± 20 | 1465.4 ± 20
x1 = 0.599 | 1085 ± 6 | 1078 ± 6 | 1072 ± 6 | 1065 ± 6 | 1626.4 ± 20 | 1590.7 ± 20 | 1559.2 ± 20 | 1529.2 ± 20
x1 = 0.697 | 1113 ± 6 | 1106 ± 6 | 1099 ± 6 | 1093 ± 6 | 1701.1 ± 20 | 1657.4 ± 20 | 1623.2 ± 20 | 1592.3 ± 20
x1 = 0.801 | 1137 ± 6 | 1131 ± 6 | 1124 ± 6 | 1118 ± 6 | 1756.5 ± 20 | 1720.1 ± 20 | 1688.9 ± 20 | 1659.2 ± 20
x1 = 0.901 | 1160 ± 6 | 1153 ± 6 | 1146 ± 6 | 1140 ± 6 | 1817.8 ± 20 | 1772.9 ± 20 | 1738.1 ± 20 | 1707.4 ± 20
x1 = 1 | 1180 ± 6 | 1173 ± 6 | 1167 ± 6 | 1160 ± 6 | 1884.7 ± 20 | 1828.2 ± 20 | 1788.6 ± 20 | 1756 ± 20

CC(=O)[O-].[NH3+]CCO [2-hydroxyethylammonium acetate] + CC(C)O
Details | mass density, 293.15 K [kg/m3] | mass density, 303.15 K [kg/m3] | mass density, 313.15 K [kg/m3] | mass density, 323.15 K [kg/m3] | speed of sound, 293.15 K [m/s] | speed of sound, 303.15 K [m/s] | speed of sound, 313.15 K [m/s] | speed of sound, 323.15 K [m/s]
x1 = 0.102 | 840.8 ± 6.7 | 832.7 ± 6.8 | 824.4 ± 6.8 | 815.7 ± 6.8 | 1218.6 ± 20 | 1184.9 ± 20 | 1151 ± 20 | 1116.9 ± 20
x1 = 0.2 | 888.4 ± 6.6 | 880.8 ± 6.6 | 872.9 ± 6.6 | 864.8 ± 6.6 | 1275.2 ± 20 | 1242.9 ± 20 | 1210.5 ± 20 | 1177.8 ± 20
x1 = 0.299 | 930.8 ± 6.5 | 923.5 ± 6.5 | 916 ± 6.5 | 908.3 ± 6.5 | 1334 ± 20 | 1302.6 ± 20 | 1271.5 ± 20 | 1240.1 ± 20
x1 = 0.397 | 970.4 ± 6.4 | 963.3 ± 6.4 | 956.2 ± 6.5 | 948.5 ± 6.5 | 1397.5 ± 20 | 1366.2 ± 20 | 1335.9 ± 20 | 1305.6 ± 20
x1 = 0.493 | 1007 ± 6 | 999.7 ± 6.4 | 992.8 ± 6.4 | 985.5 ± 6.4 | 1465.1 ± 20 | 1435.1 ± 20 | 1405.8 ± 20 | 1376.6 ± 20
x1 = 0.6 | 1042 ± 6 | 1037 ± 6 | 1030 ± 6 | 1023 ± 6 | 1549.8 ± 21 | 1516.7 ± 20 | 1487.9 ± 20 | 1460.2 ± 21
x1 = 0.692 | 1072 ± 6 | 1066 ± 6 | 1060 ± 6 | 1052 ± 6 | 1620.1 ± 20 | 1588.6 ± 20 | 1559.5 ± 20 | 1532.3 ± 20
x1 = 0.798 | 1103 ± 6 | 1097 ± 6 | 1091 ± 6 | 1085 ± 6 | 1701.8 ± 21 | 1666.8 ± 20 | 1638.2 ± 20 | 1612 ± 20
x1 = 0.894 | 1129 ± 6 | 1124 ± 6 | 1118 ± 6 | 1112 ± 6 | 1779 ± 20 | 1742.8 ± 20 | 1713.8 ± 20 | 1687.8 ± 20
x1 = 1 | 1150 ± 6 | 1144 ± 6 | 1139 ± 6 | 1132 ± 6 | 1812.9 ± 20 | 1781.2 ± 20 | 1754.7 ± 20 | 1730.9 ± 20

CC(=O)[O-].[NH3+]CCO [2-hydroxyethylammonium acetate] + CCCO
Details | mass density, 293.15 K [kg/m3] | mass density, 303.15 K [kg/m3] | mass density, 313.15 K [kg/m3] | mass density, 323.15 K [kg/m3] | speed of sound, 293.15 K [m/s] | speed of sound, 303.15 K [m/s] | speed of sound, 313.15 K [m/s] | speed of sound, 323.15 K [m/s]
x1 = 0.101 | 855.6 ± 6.7 | 847.8 ± 6.7 | 839.9 ± 6.7 | 831.9 ± 6.7 | 1274.5 ± 20 | 1241.6 ± 20 | 1208.9 ± 20 | 1176.3 ± 20
x1 = 0.199 | 900 ± 6.5 | 892.5 ± 6.6 | 884.8 ± 6.6 | 877.1 ± 6.6 | 1323.5 ± 20 | 1291.7 ± 20 | 1260.2 ± 20 | 1228.7 ± 20
x1 = 0.298 | 941.7 ± 6.5 | 934.5 ± 6.5 | 927.2 ± 6.5 | 919.6 ± 6.5 | 1377.3 ± 20 | 1346.4 ± 20 | 1316 ± 20 | 1285.6 ± 20
x1 = 0.401 | 981.1 ± 6.4 | 974.1 ± 6.4 | 967.3 ± 6.4 | 960.3 ± 6.4 | 1437.7 ± 20 | 1407.8 ± 20 | 1378.3 ± 20 | 1348.9 ± 20
x1 = 0.502 | 1016 ± 6 | 1010 ± 6 | 1003 ± 6 | 996.3 ± 6.4 | 1502 ± 20 | 1472.9 ± 20 | 1444.4 ± 20 | 1416.3 ± 20
x1 = 0.592 | 1046 ± 6 | 1040 ± 6 | 1033 ± 6 | 1027 ± 6 | 1561.1 ± 20 | 1532.2 ± 20 | 1504.3 ± 20 | 1477 ± 20
x1 = 0.681 | 1073 ± 6 | 1067 ± 6 | 1061 ± 6 | 1055 ± 6 | 1624.3 ± 20 | 1595.1 ± 20 | 1567.7 ± 20 | 1541.3 ± 20
x1 = 0.795 | 1104 ± 6 | 1098 ± 6 | 1092 ± 6 | 1086 ± 6 | 1711.5 ± 20 | 1678.6 ± 20 | 1650.8 ± 20 | 1624 ± 20
x1 = 0.89 | 1130 ± 6 | 1124 ± 6 | 1118 ± 6 | 1112 ± 6 | 1777.8 ± 20 | 1743.4 ± 20 | 1715.9 ± 20 | 1690.2 ± 20
x1 = 1 | 1150 ± 6 | 1144 ± 6 | 1139 ± 6 | 1133 ± 6 | 1812.9 ± 20 | 1781.2 ± 20 | 1754.7 ± 20 | 1730.9 ± 20
